The values below come from patent US9597342B2 (UWM Research Foundation, Inc., priority 2011, dated 2017).

One may read the pKi as the Ki on a negative log10 scale, so that one unit is a factor of ten.

pKi: −log10 of the molar value.

Data set [1] addresses T1, GABAA/α3 (Homo sapiens, UniProt P18507+P34903).
T1 sequence (P34903 29-492): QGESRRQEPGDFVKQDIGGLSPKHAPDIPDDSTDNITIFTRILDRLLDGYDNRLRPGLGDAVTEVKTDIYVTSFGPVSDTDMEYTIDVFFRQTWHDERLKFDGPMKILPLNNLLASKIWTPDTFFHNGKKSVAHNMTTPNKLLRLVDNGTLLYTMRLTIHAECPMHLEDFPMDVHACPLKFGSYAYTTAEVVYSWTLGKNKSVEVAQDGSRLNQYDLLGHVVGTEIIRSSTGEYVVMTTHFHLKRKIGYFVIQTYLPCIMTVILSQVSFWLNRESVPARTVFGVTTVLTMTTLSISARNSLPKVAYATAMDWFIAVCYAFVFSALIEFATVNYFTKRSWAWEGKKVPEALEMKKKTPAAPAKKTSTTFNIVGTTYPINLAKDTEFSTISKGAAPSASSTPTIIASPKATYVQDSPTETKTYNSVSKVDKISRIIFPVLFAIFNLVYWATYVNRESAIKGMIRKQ
T1 sequence (P18507 40-467 limits assumed): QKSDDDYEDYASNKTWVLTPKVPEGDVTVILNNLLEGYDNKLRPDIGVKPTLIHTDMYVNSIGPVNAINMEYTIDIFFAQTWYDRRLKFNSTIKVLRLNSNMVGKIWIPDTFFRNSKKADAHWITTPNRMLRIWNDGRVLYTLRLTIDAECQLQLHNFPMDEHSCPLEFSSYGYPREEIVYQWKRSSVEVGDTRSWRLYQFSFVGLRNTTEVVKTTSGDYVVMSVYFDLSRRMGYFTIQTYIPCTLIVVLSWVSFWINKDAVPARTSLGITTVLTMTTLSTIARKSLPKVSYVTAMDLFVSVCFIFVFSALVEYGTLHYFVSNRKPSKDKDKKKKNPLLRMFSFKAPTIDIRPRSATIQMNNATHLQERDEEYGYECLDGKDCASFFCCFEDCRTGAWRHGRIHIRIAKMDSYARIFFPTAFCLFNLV
T1 sequence (P28472 26-473 partner): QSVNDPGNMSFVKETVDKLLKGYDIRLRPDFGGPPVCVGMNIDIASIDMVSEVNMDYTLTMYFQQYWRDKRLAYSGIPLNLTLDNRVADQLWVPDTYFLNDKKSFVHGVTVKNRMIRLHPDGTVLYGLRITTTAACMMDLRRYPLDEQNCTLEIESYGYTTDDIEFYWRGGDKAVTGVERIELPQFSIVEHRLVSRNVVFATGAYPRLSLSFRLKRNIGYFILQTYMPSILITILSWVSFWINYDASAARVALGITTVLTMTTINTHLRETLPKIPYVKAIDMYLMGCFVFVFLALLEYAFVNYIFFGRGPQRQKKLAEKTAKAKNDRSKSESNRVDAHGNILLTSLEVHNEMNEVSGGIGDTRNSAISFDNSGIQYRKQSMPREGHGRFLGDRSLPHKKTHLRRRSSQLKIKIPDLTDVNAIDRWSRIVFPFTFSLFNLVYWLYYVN
Particulars: intermediate affinity; Huang et al., J. Med. Chem. 2000; cited from earlier work.

Data set [2] deals with T2, GABAA/α1 receptors (Homo sapiens, UniProt P14867+P18507).
T2 sequence (P14867 28-456): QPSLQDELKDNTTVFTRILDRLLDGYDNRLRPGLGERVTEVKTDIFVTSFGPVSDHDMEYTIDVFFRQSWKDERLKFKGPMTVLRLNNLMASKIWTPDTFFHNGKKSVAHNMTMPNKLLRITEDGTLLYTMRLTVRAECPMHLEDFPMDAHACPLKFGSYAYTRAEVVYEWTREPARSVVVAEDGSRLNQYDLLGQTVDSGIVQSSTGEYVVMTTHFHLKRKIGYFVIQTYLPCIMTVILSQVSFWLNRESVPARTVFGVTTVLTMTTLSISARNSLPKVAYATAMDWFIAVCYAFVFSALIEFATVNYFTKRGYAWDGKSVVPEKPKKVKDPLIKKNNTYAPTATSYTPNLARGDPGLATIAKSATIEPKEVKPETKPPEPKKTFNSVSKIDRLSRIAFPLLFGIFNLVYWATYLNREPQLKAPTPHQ
T2 sequence (P18507 40-467 limits assumed): T1 sequence (P18507 40-467 limits assumed)
T2 sequence (P28472 26-473 partner): T1 sequence (P28472 26-473 partner)
The following applies: poorer affinity; Huang et al., J. Med. Chem. 2000; cited from earlier work.

Data set [3] addresses T3, GABAA/α2 (Homo sapiens, UniProt P18507+P47869).
T3 sequence (P47869 29-451): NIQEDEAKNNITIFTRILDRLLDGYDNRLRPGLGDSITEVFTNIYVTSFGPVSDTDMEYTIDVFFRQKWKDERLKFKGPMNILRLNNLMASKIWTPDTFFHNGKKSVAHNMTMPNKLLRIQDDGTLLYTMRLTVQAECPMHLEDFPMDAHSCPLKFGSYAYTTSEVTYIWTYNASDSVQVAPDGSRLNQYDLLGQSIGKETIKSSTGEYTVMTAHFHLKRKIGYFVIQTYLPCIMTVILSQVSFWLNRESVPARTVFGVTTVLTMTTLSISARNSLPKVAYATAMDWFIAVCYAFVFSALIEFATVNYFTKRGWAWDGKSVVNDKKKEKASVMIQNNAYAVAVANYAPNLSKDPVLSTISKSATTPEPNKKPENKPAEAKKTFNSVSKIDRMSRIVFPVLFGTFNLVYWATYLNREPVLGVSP
T3 sequence (P18507 40-467 limits assumed): T1 sequence (P18507 40-467 limits assumed)
T3 sequence (P28472 26-473 partner): T1 sequence (P28472 26-473 partner)
Particulars: intermediate affinity; Huang et al., J. Med. Chem. 2000; cited from earlier work.

Data set [4] has as its target T4, GABAA/α5 receptors (Homo sapiens, UniProt P18507+P31644).
T4 sequence (P31644 32-462): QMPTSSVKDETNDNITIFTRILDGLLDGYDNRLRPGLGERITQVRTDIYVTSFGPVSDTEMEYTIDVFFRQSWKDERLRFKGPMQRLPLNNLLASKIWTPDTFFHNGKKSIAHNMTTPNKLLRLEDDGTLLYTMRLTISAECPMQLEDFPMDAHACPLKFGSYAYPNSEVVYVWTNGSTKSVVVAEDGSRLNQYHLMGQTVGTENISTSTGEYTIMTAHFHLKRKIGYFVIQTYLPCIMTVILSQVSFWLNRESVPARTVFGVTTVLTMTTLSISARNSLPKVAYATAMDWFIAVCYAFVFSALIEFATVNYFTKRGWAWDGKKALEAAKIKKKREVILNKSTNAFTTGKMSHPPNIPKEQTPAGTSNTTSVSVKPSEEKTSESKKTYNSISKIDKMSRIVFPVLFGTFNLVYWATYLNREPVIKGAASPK
T4 sequence (P18507 40-467 limits assumed): T1 sequence (P18507 40-467 limits assumed)
T4 sequence (P28472 26-473 partner): T1 sequence (P28472 26-473 partner)
Particulars: high affinity; Huang et al., J. Med. Chem. 2000; cited from earlier work.

The nature of data set [5]: In vitro metabolic stability using human liver microsomes. The method, then: The metabolic stability of 15 GABAA receptor ligands using human liver microsomes was studied. The test articles were incubated at two concentrations (1 and 10 μM) and aliquots (100 μl) were removed at various time points (0, 15, 30 and 60 minutes), and analyzed by LC-MS/MS.
(§1) The test articles were incubated at two concentrations (1 and 10 μM) in 96-well plate format with active or heat-inactivated human liver microsomes and cofactors. Aliquots were removed at 0, 15, 30 and 60 minutes and mixed with acetonitrile containing internal standard for analysis. Samples were extracted and assayed using a liquid chromatography/tandem mass spectrometry (LC-MS/MS) analytical method.
Pooled human liver microsomes (Lot #38289, pool of 150 different male and female donor livers) were obtained from BD Biosciences Corporation (Woburn, Mass.). Microsomes were stored at ˜−135° C. until use.
(§2) The test articles (1 and 10 μM) were incubated with human liver microsomes (0.5 mg protein/ml) and appropriate cofactors (2.5 mM NADPH and 3.3 mM magnesium chloride) in 100 mM phosphate buffer, pH 7.4 (0.1% final DMSO), in a 37° C. water bath. Incubations with all compounds were initiated with the addition of microsomes. At selected time points (0, 15, 30 and 60 min), a single 100 μl aliquot was removed from each sample and mixed with 200 μl of chilled acetonitrile containing internal standard. Following brief vortexing and centrifugation, the samples were further diluted into a 96-well plate for subsequent LC-MS/MS analysis. All samples were assayed in duplicate.
(§3) Experimental controls consisted of: a) incubation of all components except test article for 0 and 60 min, b) incubation of midazolam (positive control) at 10 μM for 0, 15, 30 and 60 min, and c) incubation of 1 and 10 μM test article and 10 μM midazolam with heat-inactivated microsomes (0.5 mg protein/ml) for 0 and 60 min. All controls were assayed in duplicate.
Samples were analyzed by LC-MS/MS in multiple reaction monitoring mode using positive-ion electrospray ionization. The details of the LC-MS/MS method can be provided upon request.
(§4) Data from the metabolic stability assays were transferred to and processed in a Microsoft Excel spreadsheet. To determine metabolic stability, the percent remaining at each time point was calculated by dividing the peak area ratio of test article/internal standard at each time point by the peak area ratio at 0 min multiplied by 100.

Data set [6] is described as follows: Incubation with heat-inactivated human liver microsomes (stability control). Particulars: 60 min. As to the method: as §1, §2, §3, §4
Background: Liver microsomes are vesicles of endoplasmic reticulum, rich in cytochrome P450 enzymes.

Data set [7] deals with rhesus monkeys. The experiment in a line: Conflict procedure (anxiolytic and sedating effects) in rhesus monkeys. The following applies: i.v., cumulative dosing, data for one monkey (FIG. 14). Type of data set: in vivo. The source says:
Other methods for evaluating compounds are known to those skilled in the art. For example, an assessment of anxiolytic effects of compounds can be accomplished objectively and quantitatively with operant-based conflict procedures, as described in Fischer et al. Neuropharmacology 59 (2010) 612-618. Briefly, behavior which is positively reinforced can be suppressed in these procedures by response-contingent administration of a noxious stimulus such as mild electric shock. […] The strength of conflict procedures is their predictive validity with respect to expected therapeutic effects in humans. Results from the Fischer et al. indicate that benzodiazepine-like drugs that have pharmacological activity for α2GABAA and/or α3GABAA receptors and low receptor activity at α 1GABAA and α5GABAA receptors may be useful, particularly as non-sedating anxiolytics. […]
Test sessions were conducted once or twice per week when monkeys reached stable performance, defined as the average rates of responding for component 1 and component 2 not varying by ±20% over five consecutive sessions, with no upward or downward trends. […] The dependent measure was the average rates of responding (responses/s), calculated by dividing responses by time during components 1 and 2, excluding responding during time outs or reinforcer delivery.

In data set [8] the target is all four diazepam-sensitive GABAA receptors. The following applies: Huang et al., J. Med. Chem. 2000; cited from earlier work.

For the compound `C#Cc1ccc2c(c1)C(c1ccccc1)=NCC(=O)N2C` [QH-ii-066], the pKi was over 7.30 in data set [1], under 7.15 in data set [2], over 7.30 in data set [3] and over 8.00 in data set [4].

On to `C#Cc1ccc2c(c1)C(c1ccccc1F)=NCc1c(C(=O)OCCCOC(=O)c3ncn4c3CN=C(c3ccccc3F)c3cc(C#C)ccc3-4)ncn1-2` [YT-III-271, Propane-1,3-Diyl-Bis-(8-Ethynyl-6-(2-Fluorophenyl)-4H-Benzo-[1]-Imidazo-[1,5-a]-[1,4]-Diazepine-3-Carboxylate)], for which the “Mean % Remaining vs T = 0 min, Human Liver Microsomes” value in data set [5] (1 μM, 15 min) was 97.1%; in data set [5] (1 μM, 30 min) it was 83.5%; in data set [5] (10 μM, 15 min), 104%; in data set [5] (10 μM, 30 min) it was 102%; in data set [5] (10 μM, 60 min), 91.1%. Besides, the “Mean % Remaining vs T = 0 min, with HI (Heat Inactivated) Microsomes” value in data set [6] (1 μM) is given as 117%; in data set [6] (10 μM) it was 97.0%. For the same compound, in data set [7], the “anxiolytic effect (suppressed responding)” value was “clearly anxiolytic”. Moreover, in data set [7], the “sedating effect (non-suppressed responding)” value is given as “nonsedating”.

For the compound `CN1C(=O)CN=C(c2ccccc2)c2cc(Cl)ccc21` [diazepam], the negative logarithm of the Ki (pKi) in data set [8] was over 7.60.
